From patent US9150575B2, “Piperidinylpyrazolopyridine derivative” (Daiichi Sankyo Company, Limited, priority 2012, dated 2015)
pEC50: −log10 of the molar value. Structures can show the parent of a compound that is named as a salt.

Biological target: T1, LCAT (Homo sapiens, UniProt P04180)
T1 construct: The obtained fraction was dialyzed against phosphate-buffered saline (pH 7.4) and used as an enzyme source and an acceptor for LCAT; from tissue; host or cells: HDL3 fraction (1.125<specific gravity<1.210 g/mL) of plasma from a healthy person
T1 sequence (P04180 25-440): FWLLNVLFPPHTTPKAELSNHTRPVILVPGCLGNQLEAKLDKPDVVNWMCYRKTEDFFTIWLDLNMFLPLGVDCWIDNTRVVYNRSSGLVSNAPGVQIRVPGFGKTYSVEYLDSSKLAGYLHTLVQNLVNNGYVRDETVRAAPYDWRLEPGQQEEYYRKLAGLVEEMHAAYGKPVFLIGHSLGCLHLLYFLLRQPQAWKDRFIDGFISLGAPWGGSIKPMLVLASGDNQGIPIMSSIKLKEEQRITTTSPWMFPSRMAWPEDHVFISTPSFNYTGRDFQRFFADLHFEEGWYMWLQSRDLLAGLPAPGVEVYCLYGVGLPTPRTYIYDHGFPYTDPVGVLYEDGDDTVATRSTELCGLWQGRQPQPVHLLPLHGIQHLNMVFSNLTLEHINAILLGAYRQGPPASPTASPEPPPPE
Assay: LCAT Activity Measurement (In Vitro)
Format: biochemical
Conditions: EC50 of LCAT activation; HDL3 fraction from plasma of a healthy person as enzyme source and acceptor; [14C]cholesterol; 37° C., approximately 16 hours
Description: A fraction composed of HDL3 (1.125<specific gravity<1.210 g/mL) was obtained from the plasma of a healthy person by density gradient centrifugation. The obtained fraction was dialyzed against phosphate-buffered saline (pH 7.4) and used as an enzyme source and an acceptor for LCAT. Each test drug was prepared by dissolution in dimethyl sulfoxide. [14C]Cholesterol containing DTNB (Ellman's reagent, final concentration: 0.5 mM), mercaptoethanol (final concentration: 12.5 mM), and 0.6% bovine serum albumin was added to phosphate-buffered saline (pH 7.4) containing 1 mg/mL HDL3, and the test drug was further added thereto at varying concentrations to adjust the whole amount to 80 μL. This mixture was incubated at 37° C. for approximately 16 hours. Then, a mixed solution of hexane and isopropanol (mixing ratio=3:2) was added thereto to stop the reaction. After stirring, the hexane layer was collected, and this layer was evaporated to dryness. A chloroform solution (concentration: 10 mg/mL) was added thereto, and the mixture was spotted onto a thin-layer silica gel plate and developed using a mixed solution of hexane, diethyl ether, and ethyl acetate (mixing ratio=85:15:2). The radioactivity of a portion corresponding to cholesterol oleate was measured using an imaging analyzer BAS-2500 (manufactured by Fujifilm Corp.). A sample non-supplemented with the test drug was similarly treated and assayed. The EC50 value of LCAT activation was calculated according to the expression given below relative to LCAT activity in the sample non-supplemented with the test drug.
wherein X represents the logarithm of the concentration of the test drug;
Y represents the responsiveness (LCAT activity) of the test drug;
Top represents the maximum value (maximum plateau);
Bottom represents the minimum value (minimum plateau); and
EC50 represents the 50% effective concentration.

Structure (SMILES)	pEC50
O=C1CC(O)(C(F)(F)F)c2c(C3CCN(c4nc(Cl)ccc4C(F)(F)F)CC3)n[nH]c2N1 (stereo not drawn) [Compound 98-b, 3-{1-[6-chloro-3-(trifluoromethyl)pyridin-2-yl]piperidin-4-yl}-4-hydroxy-4-(trifluoromethyl)-1,4,5,7-tetrahydro-6H-pyrazolo[3,4-b]pyridin-6-one]	6.29
COc1ccc(N2CCC(c3n[nH]c4c3C(O)(C(F)(F)F)CC(=O)N4)CC2)nn1 (stereo not drawn) [Example 28, 4-Hydroxy-3-[1-(6-methoxypyridazin-3-yl)piperidin-4-yl]-4-(trifluoromethyl)-1,4,5,7-tetrahydro-6H-pyrazolo[3,4-b]pyridin-6-one]	6.52
O=C1CC(O)(C(F)(F)F)c2c(C3CCN(c4nc(C5CC5)no4)CC3)n[nH]c2N1 (stereo not drawn) [Example 71, 3-[1-(3-Cyclopropyl-1,2,4-oxadiazol-5-yl)piperidin-4-yl]-4-hydroxy-4-(trifluoromethyl)-1,4,5,7-tetrahydro-6H-pyrazolo[3,4-b]pyridin-6-one]	6.28
O=C1CC(O)(C(F)(F)F)c2c(C3CCN(c4ccnc(C(F)(F)F)n4)CC3)n[nH]c2N1 (stereo not drawn) [Example 79, 4-Hydroxy-4-(trifluoromethyl)-3-{1-[2-(trifluoromethyl)pyrimidin-4-yl]piperidin-4-yl}-1,4,5,7-tetrahydro-6H-pyrazolo[3,4-b]pyridin-6-one]	6.52
N#Cc1ccc(N2CCC(c3n[nH]c4c3C(O)(C(F)(F)F)CC(=O)N4)CC2)nc1Cl (stereo not drawn) [Example 21, 2-Chloro-6-{4-[4-hydroxy-6-oxo-4-(trifluoromethyl)-4,5,6,7-tetrahydro-1H-pyrazolo[3,4-b]pyridin-3-yl]piperidin-1-yl}pyridine-3-carbonitrile]	6.57
O=C1CC(O)(C(F)(F)F)c2c(C3CCN(c4ccc(OC(F)F)cc4)CC3)n[nH]c2N1 (single isomer, unassigned; (+)) [Compound 56-2, (+)-3-{1-[4-(difluoromethoxy)phenyl]piperidin-4-yl}-4-hydroxy-4-(trifluoromethyl)-1,4,5,7-tetrahydro-6H-pyrazolo[3,4-b]pyridin-6-one]	6.01
CN(C)c1ccc(N2CCC(c3n[nH]c4c3C(O)(C(F)(F)F)CC(=O)N4)CC2)cn1 (stereo not drawn) [Example 68, 3-{1-[6-(Dimethylamino)pyridin-3-yl]piperidin-4-yl}-4-hydroxy-4-(trifluoromethyl)-1,4,5,7-tetrahydro-6H-pyrazolo[3,4-b]pyridin-6-one]	6.12
Cc1cccnc1N1CCC(c2n[nH]c3c2C(O)(C(F)(F)F)CC(=O)N3)CC1 (stereo not drawn) [Example 6, 4-Hydroxy-3-[1-(3-methylpyridin-2-yl)piperidin-4-yl]-4-(trifluoromethyl)-1,4,5,7-tetrahydro-6H-pyrazolo[3,4-b]pyridin-6-one]	5.90
O=C1CC(O)(C(F)(F)F)c2c(C3CCN(c4cc(C(F)(F)F)nc(C5CC5)n4)CC3)n[nH]c2N1 (stereo not drawn) [Example 92, 3-{1-[2-Cyclopropyl-6-(trifluoromethyl)pyrimidin-4-yl]piperidin-4-yl}-4-hydroxy-4-(trifluoromethyl)-1,4,5,7-tetrahydro-6H-pyrazolo[3,4-b]pyridin-6-one]	6.68
N#Cc1ccc(N2CCC(c3n[nH]c4c3C(O)(C(F)(F)F)CC(=O)N4)CC2)cc1 (stereo not drawn) [Example 35, 4-{4-[4-Hydroxy-6-oxo-4-(trifluoromethyl)-4,5,6,7-tetrahydro-1H-pyrazolo[3,4-b]pyridin-3-yl]piperidin-1-yl}benzonitrile]	6.42
CN(C)C(=O)c1cc(N2CCC(c3n[nH]c4c3C(O)(C(F)(F)F)CC(=O)N4)CC2)ccc1C(F)(F)F (stereo not drawn) [Example 69, 5-{4-[4-Hydroxy-6-oxo-4-(trifluoromethyl)-4,5,6,7-tetrahydro-1H-pyrazolo[3,4-b]pyridin-3-yl]piperidin-1-yl}-N,N-dimethyl-2-(trifluoromethyl)benzamide]	6.72
Cc1cncc(N2CCC(c3n[nH]c4c3C(O)(C(F)(F)F)CC(=O)N4)CC2)n1 (stereo not drawn) [Example 26, 4-Hydroxy-3-[1-(6-methylpyrazin-2-yl)piperidin-4-yl]-4-(trifluoromethyl)-1,4,5,7-tetrahydro-6H-pyrazolo[3,4-b]pyridin-6-one]	6.59
N#Cc1cccc(N2CCC(c3n[nH]c4c3C(O)(C(F)(F)F)CC(=O)N4)CC2)c1 (stereo not drawn) [Example 23, 3-{4-[4-Hydroxy-6-oxo-4-(trifluoromethyl)-4,5,6,7-tetrahydro-1H-pyrazolo[3,4-b]pyridin-3-yl]piperidin-1-yl}benzonitrile]	6.92
O=C1CC(O)(C(F)(F)F)c2c(C3CCN(c4cc(C(F)(F)F)ncn4)CC3)n[nH]c2N1 (stereo not drawn) [Example 45, 4-Hydroxy-4-(trifluoromethyl)-3-{1-[6-(trifluoromethyl)pyrimidin-4-yl]piperidin-4-yl}-1,4,5,7-tetrahydro-6H-pyrazolo[3,4-b]pyridin-6-one]	6.85
O=C1CC(O)(C(F)(F)F)c2c(C3CCN(c4ccc(OC5CCC5)nc4)CC3)n[nH]c2N1 (stereo not drawn) [Example 61, 3-{1-[6-(Cyclobutoxy)pyridin-3-yl]piperidin-4-yl}-4-hydroxy-4-(trifluoromethyl)-1,4,5,7-tetrahydro-6H-pyrazolo[3,4-b]pyridin-6-one]	7.00
Cc1cccc(N2CCC(c3n[nH]c4c3C(O)(C(F)(F)F)CC(=O)N4)CC2)n1 (stereo not drawn) [Example 3, 4-Hydroxy-3-[1-(6-methylpyridin-2-yl)piperidin-4-yl]-4-(trifluoromethyl)-1,4,5,7-tetrahydro-6H-pyrazolo[3,4-b]pyridin-6-one]	6.20

Next, values leading:

pEC50	Structure (SMILES)
7.82	N#Cc1nc(N2CCC(c3n[nH]c4c3C(O)(C(F)(F)F)CC(=O)N4)CC2)ccc1C(F)(F)F (stereo not drawn) [Example 94, 6-{4-[4-Hydroxy-6-oxo-4-(trifluoromethyl)-4,5,6,7-tetrahydro-1H-pyrazolo[3,4-b]pyridin-3-yl]piperidin-1-yl}-3-(trifluoro)pyridine-2-carbonitrile]
8.15	N#Cc1cc(N2CCC(c3n[nH]c4c3C(O)(C(F)(F)F)CC(=O)N4)CC2)ccc1OC(F)(F)F (stereo not drawn) [Example 62, 5-{4-[4-Hydroxy-6-oxo-4-(trifluoromethyl)-4,5,6,7-tetrahydro-1H-pyrazolo[3,4-b]pyridin-3-yl]piperidin-1-yl}-2-(trifluoromethoxy)benzonitrile]
7.37	N#Cc1ncc(N2CCC(c3n[nH]c4c3C(O)(C(F)(F)F)CC(=O)N4)CC2)cc1F (stereo not drawn) [Example 38, 3-Fluoro-5-{4-[4-hydroxy-6-oxo-4-(trifluoromethyl)-4,5,6,7-tetrahydro-1H-pyrazolo[3,4-b]pyridin-3-yl]piperidin-1-yl}pyridine-2-carbonitrile]
7.92	O=C1CC(O)(C(F)(F)F)c2c(C3CCN(c4cnc(C(F)(F)F)cn4)CC3)n[nH]c2N1 (stereo not drawn) [Example 46, 4-Hydroxy-4-(trifluoromethyl)-3-{1-[5-(trifluoromethyl)pyrazin-2-yl]piperidin-4-yl}-1,4,5,7-tetrahydro-6H-pyrazolo[3,4-b]pyridin-6-one]
7.00	CC(C)Oc1ccc(N2CCC(c3n[nH]c4c3C(O)(C(F)(F)F)CC(=O)N4)CC2)nn1 (stereo not drawn) [Example 18, 4-Hydroxy-3-{1-[6-(propan-2-yloxy)pyridazin-3-yl]piperidin-4-yl}-4-(trifluoromethyl)-1,4,5,7-tetrahydro-6H-pyrazolo[3,4-b]pyridin-6-one hydrochloride]
6.96	O=C1CC(O)(C(F)(F)F)c2c(C3CCN(c4ncc(-c5ccccc5)s4)CC3)n[nH]c2N1 (stereo not drawn) [Example 89, 4-Hydroxy-3-[1-(5-phenyl-1,3-thiazol-2-yl)piperidin-4-yl]-4-(trifluoromethyl)-1,4,5,7-tetrahydro-6H-pyrazolo[3,4-b]pyridin-6-one]
7.09	O=C1CC(O)(C(F)(F)F)c2c(C3CCN(c4ccc(OC(F)F)cn4)CC3)n[nH]c2N1 (stereo not drawn) [Example 51, 3-{1-[5-(Difluoromethoxy)pyridin-2-yl]piperidin-4-yl}-4-hydroxy-4-(trifluoromethyl)-1,4,5,7-tetrahydro-6H-pyrazolo[3,4-b]pyridin-6-one]
7.11	CCOC(=O)c1oc(N2CCC(c3n[nH]c4c3C(O)(C(F)(F)F)CC(=O)N4)CC2)nc1C(F)(F)F (stereo not drawn) [Example 91, Ethyl 2-{4-[4-hydroxy-6-oxo-4-(trifluoromethyl)-4,5,6,7-tetrahydro-1H-pyrazolo[3,4-b]pyridin-3-yl]piperidin-1-yl}-4-(trifluoromethyl)-1,3-oxazole-5-carboxylate]
